US5705190A, “Controlled release formulation for poorly soluble basic drugs” (Abbott Laboratories, priority 1995, dated 1998)
Where two headings read alike, the source gives them in different places.

Key:
[1] = cited from earlier work
[2] = in vivo

| Molecule | water solubility (1 part of drug in the number of parts of water) ([1]; water) | also measured |
| --- | --- | --- |
| CO[C@@H]1[C@@H](O[C@@H]2O[C@H](C)[C@@H](O[C@H]3C[C@@](C)(O)[C@@H](OC(=O)CC(C)C)[C@H](C)O3)[C@H](N(C)C)[C@H]2O)[C@@H](CC=O)C[C@@H](C)[C@@H](O)/C=C/C=C/C[C@@H](C)OC(=O)C[C@H]1OC(C)=O [josamycin] | 1,000-10,000 parts of water | – |
| Cc1ncc([N+](=O)[O-])n1CCO [metronidazole] | 100-1,000 parts of water | – |
| CC1Cc2ccccc2N1NC(=O)c1ccc(Cl)c(S(N)(=O)=O)c1 (stereo not drawn) [indapamide] | more than 10,000 parts of water | – |
| CC[C@H]1OC(=O)[C@H](C)[C@@H](O[C@H]2C[C@@](C)(OC)[C@@H](O)[C@H](C)O2)[C@H](C)[C@@H](O[C@@H]2O[C@H](C)C[C@H](N(C)C)[C@H]2O)[C@](C)(OC)C[C@@H](C)C(=O)[C@H](C)[C@@H](O)[C@]1(C)O [clarithromycin] | – | water solubility (1 part of drug in the number of parts of water) ([1]; 1 part drug in x parts water, a higher number is a lower solubility): ~1,000 parts of water; solubility in the stomach ([1]; pH 1.2): very soluble; solubility in the upper region of the small intestine ([1]; pH 5.0): fairly soluble; solubility in the lower intestine ([1]; pH 6 to 8): solubility decreases |
| CC[C@H]1OC(=O)C[C@@H](O)[C@H](C)[C@@H](O[C@@H]2O[C@H](C)[C@@H](O[C@H]3C[C@@](C)(O)[C@@H](O)[C@H](C)O3)[C@H](N(C)C)[C@H]2O)[C@@H](CC=O)C[C@@H](C)C(=O)/C=C/C(C)=C/[C@@H]1CO[C@@H]1O[C@H](C)[C@@H](O)[C@@H](OC)[C@H]1OC [tylosin] | 100-1,000 parts of water | – |
| CCC(=O)O[C@@H]1CC(=O)O[C@H](C)C/C=C/C=C/[C@H](O)[C@H](C)C[C@H](CC=O)[C@H](O[C@@H]2O[C@H](C)[C@@H](O[C@H]3C[C@@](C)(O)[C@@H](OC(=O)CC)[C@H](C)O3)[C@H](N(C)C)[C@H]2O)[C@H]1OC [midecamycin] | – | water solubility in words ([1]; water): very slightly soluble in water |
| CC[C@H]1OC(=O)[C@H](C)[C@@H](O[C@H]2C[C@@](C)(OC)[C@@H](O)[C@H](C)O2)[C@H](C)[C@@H](O[C@@H]2O[C@H](C)C[C@H](N(C)C)[C@H]2O)[C@](C)(O)C[C@@H](C)C(=O)[C@H](C)[C@@H](O)[C@]1(C)O [erythromycin] | 1,000 parts of water | reproducibly bioavailable controlled release formulations [2]: not possible |
| kitasamycin | 1,000-10,000 parts of water | – |
